Laboratory results reported in patent publication US20210171948A1, “COMPOSITIONS AND METHODS FOR TARGETING GLYPICAN-2 IN THE TREATMENT OF CANCER” (Shepherd Therapeutics, Inc., priority 2019, published 2021).
Like-named read-outs stand apart in the source and are kept apart here. d = 2'-deoxy (DNA); r = 2'-OH (RNA)

Columns and labels:
Format in all cases: cell-based
[1] = test system: CHP212 cells; test: Cisplatin IC50 in siRNA-transfected cells, Cell Titer Glo 2.0 viability (Example 5); conditions: for Data Summary: effect of knockdown on sensitivity to cisplatin: CHP212; for IC50: CHP212 cells transfected with the labelled siRNA, cisplatin added 24 hours post transfection, 72 hour incubation
Experimental: (§1) GPC2 mRNA was reduced using the indicated siRNAs and changes in cell viability were assessed in multiple cancer cell lines, in combination with Cisplatin treatment. Cells were transfected with either a scrambled control siRNA or with GPC2 siRNA sequences 3 or 5 from Table 7 using the RNAiMAX Lipofectamine kit (Invitrogen, Carlsbad, Calif.), as previously described, in either in 96 well (for viability assays) or 6 well format (for total RNA). Cisplatin was added at increasing concentrations (0 to 30 uM) to transfected cells at 24 hours post transfection. Following a 72 hour incubation period, cell viability was measured using Cell Titer Glo 2.0. Total RNA samples were also isolated to measure knockdown efficiency.

[2] = test system: TOV112D cells; test: as above; conditions: for Data Summary: effect of knockdown on sensitivity to cisplatin: TOV112D; for IC50: TOV112D cells transfected with the labelled siRNA, cisplatin added 24 hours post transfection, 72 hour incubation
Experimental: as §1

[3] = test system: CHLA-172 cells; test: as above; conditions: for Data Summary: effect of knockdown on sensitivity to cisplatin: CHLA-172; for IC50: CHLA-172 cells transfected with the labelled siRNA, cisplatin added 24 hours post transfection, 72 hour incubation
Experimental: as §1

[4] = test system: GIST-T1 cells; test: as above; conditions: for IC50: GIST-T1 cells transfected with the labelled siRNA, cisplatin added 24 hours post transfection, 72 hour incubation
Experimental: as §1

[5] = test system: RH41 cells; test: as above; conditions: for IC50: RH41 cells transfected with the labelled siRNA, cisplatin added 24 hours post transfection, 72 hour incubation
Experimental: as §1

[6] = test system: SNU16 cells; test: as above; conditions: for Data Summary: effect of knockdown on sensitivity to cisplatin: SNU16; for IC50: SNU16 cells transfected with the labelled siRNA, cisplatin added 24 hours post transfection, 72 hour incubation
Experimental: as §1

[7] = test system: SH-SY5Y cells; test: as above; conditions: for IC50: SH-SY5Y cells transfected with the labelled siRNA, cisplatin added 24 hours post transfection, 72 hour incubation
Experimental: as §1

[8] = test system: CHLA-90 cells; test: as above; conditions: for Data Summary: effect of knockdown on sensitivity to cisplatin: CHLA-90; for IC50: CHLA-90 cells transfected with the labelled siRNA, cisplatin added 24 hours post transfection, 72 hour incubation
Experimental: as §1

[9] = test system: CHLA-136 cells; test: as above; conditions: for Data Summary: effect of knockdown on sensitivity to cisplatin: CHLA-136; for IC50: CHLA-136 cells transfected with the labelled siRNA, cisplatin added 24 hours post transfection, 72 hour incubation
Experimental: as §1

[10] = test system: TC32 cells; test: as above; conditions: for Data Summary: effect of knockdown on sensitivity to cisplatin: TC32; for IC50: TC32 cells transfected with the labelled siRNA, cisplatin added 24 hours post transfection, 72 hour incubation
Experimental: as §1

[11] = test system: CHLA-172 cells; test: Cyclophosphamide IC50 in siRNA-transfected cells, Cell Titer Glo 2.0 viability (Example 7); conditions: for Data Summary: effect of knockdown on sensitivity to cyclophosphamide: CHLA-172; for IC50: CHLA-172 cells transfected with the labelled siRNA, cyclophosphamide added 24 hr post transfection, 72 hour incubation
Experimental: (§2) GPC2 mRNA expression was reduced with the indicated siRNAs and changes in cell viability were assessed in multiple neuroblastoma cell lines. Cells were transfected with either a control siRNA or with GPC2 siRNA sequences 3, 5 or 7 from Table 7 using the RNAiMAX Lipofectamine kit (Invitrogen, Carlsbad, Calif.) as previously described in 96 wells for viability assays. Cyclophosphamide was added at increasing concentrations (0-20 uM) to transfected cells at 24 hr post transfection. Following a 72 hour incubation period, viability measurements were made using Cell Titer Glo 2.0.

[12] = test system: KELLY cells; test: as above; conditions: for Data Summary: effect of knockdown on sensitivity to cyclophosphamide: KELLY; for IC50: KELLY cells transfected with the labelled siRNA, cyclophosphamide added 24 hr post transfection, 72 hour incubation
Experimental: as §2

[13] = test system: CHLA-136 cells; test: as above; conditions: for Data Summary: effect of knockdown on sensitivity to cyclophosphamide: CHLA-136; for IC50: CHLA-136 cells transfected with the labelled siRNA, cyclophosphamide added 24 hr post transfection, 72 hour incubation
Experimental: as §2

[14] = test system: SKNAS cells; test: as above; conditions: for Data Summary: effect of knockdown on sensitivity to cyclophosphamide: SKNAS; for IC50: SKNAS cells transfected with the labelled siRNA, cyclophosphamide added 24 hr post transfection, 72 hour incubation
Experimental: as §2

[15] = test system: CHLA-172 cells; test: Etoposide IC50 in siRNA-transfected cells, Cell Titer Glo 2.0 viability (Example 9); conditions: for Data Summary: effect of knockdown on sensitivity to etoposide: CHLA-172; for IC50: CHLA-172 cells transfected with the labelled siRNA, etoposide added 24 hours post transfection, 72 hour incubation
[16] = test system: KELLY cells; test: as above; conditions: for Data Summary: effect of knockdown on sensitivity to etoposide: KELLY; for IC50: KELLY cells transfected with the labelled siRNA, etoposide added 24 hours post transfection, 72 hour incubation
[17] = test system: CHLA-136 cells; test: as above; conditions: for IC50: CHLA-136 cells transfected with the labelled siRNA, etoposide added 24 hours post transfection, 72 hour incubation
[18] = test system: TC71 cells; test: Cell viability after siRNA transfection, Cell Titer Glo 2.0 (Example 3)
Experimental: (§3) GPC2 mRNA knockdown and changes in cell viability were assessed in multiple cancer cell lines. Cells were transfected with either a scrambled control siRNA or with GPC2 siRNA sequence 3 or sequence 5 from Table 7 using the RNAiMAX Lipofectamine kit (Invitrogen, Carlsbad, Calif.) as previously described in Example 2, either in 96 well format (for viability assays) or 6 well format (for knockdown assessment). Following a 96 hour incubation period, cells were washed and the viability measurement was assessed using Cell Titer Glo 2.0. Total RNA was isolated from the 6 well plate samples to determine knockdown efficiency.

[19] = test system: CHP212 cells; test: as above
Experimental: as §3

[20] = test system: TOV112D cells; test: as above
Experimental: as §3

[21] = test system: GIST-T1 cells; test: as above
Experimental: as §3

[22] = test system: COV362 cells; test: as above; conditions: COV362 (Ovarian Carcinoma); 96 hour incubation
Experimental: as §3

[23] = test system: MCF7 cells; test: as above
Experimental: as §3

[24] = test system: RH41 cells; test: as above
Experimental: as §3

[25] = test system: SNU16 cells; test: as above
Experimental: as §3

[26] = test system: IMR32 cells; test: as above
Experimental: as §3

[27] = test system: TC32 cells; test: as above
Experimental: as §3

[28] = test system: SKNAS cells; test: as above
Experimental: as §3

[29] = test system: RH30 cells; test: as above
Experimental: as §3

“GPC2 siRNA 3: siRNA duplex: sense CCUGCUUGGACCUCGAUAA[dT][dT] (SEQ ID NO: 207), anti-sense UUAUCGAGGUCCAAGCAGG[dT][dT] (SEQ ID NO: 208) (sense CCUGCUUGGACCUCGAUAANN; antisense UUAUCGAGGUCCAAGCAGGNN; 3' dTdT overhangs, chemistry not fully specified; listed as Homo sapiens)” was tested, and the “Data Summary: effect of knockdown on sensitivity to cisplatin” value (from here on “Data Summary: effect … to cisplatin”) [1] was “increases sensitivity to”, the IC50 [1] was 7.4 µM and the “Data Summary: effect … to cisplatin” value [2] was “does not increase”. For the same substance, the IC50 [2] was 5 µM, the “Data Summary: effect … to cisplatin” value [3] was “does not increase” and the IC50 [3] was 16 µM. The IC50 [4] was 13 µM, the IC50 [5] was 3.2 µM and the “Data Summary: effect … to cisplatin” value [6] was “does not increase”. For the same substance, the IC50 [6] was 16 µM, the IC50 [7] was 17.6 µM and the “Data Summary: effect … to cisplatin” value [8] was “increases sensitivity to”. The IC50 [8] was 15 µM, the “Data Summary: effect … to cisplatin” value [9] was “increases sensitivity to” and the IC50 [9] was 11 µM. For the same substance, the “Data Summary: effect … to cisplatin” value [10] was “does not increase”, the IC50 [10] was 2.3 µM and the “Data Summary: effect of knockdown on sensitivity to cyclophosphamide” value (from here on “Data Summary: effect … to cyclophosphamide”) [11] was “increases sensitivity to”. The IC50 [11] was 10 µM, the “Data Summary: effect … to cyclophosphamide” value [12] was “increases sensitivity to” and the IC50 [12] was 8 µM. The “Data Summary: effect … to cyclophosphamide” value [13] was “not increase sensitivity”, the IC50 [13] was 11 µM and the “Data Summary: effect … to cyclophosphamide” value [14] was “increases sensitivity to”. The IC50 [14] was 1.37 µM, the “Data Summary: effect of knockdown on sensitivity to etoposide” value (“Data Summary: effect … to etoposide” below) [15] was “increases sensitivity to etoposide” and the IC50 [15] was 2 µM. The “Data Summary: effect … to etoposide” value [16] was “increases sensitivity to etoposide”, the IC50 [16] was 0.07 µM and the “Data Summary: effect … to etoposide” value ([17]; CHLA-136) was “increases sensitivity to etoposide”. For the same substance, the IC50 [17] was 0.17 µM, the “% Viability” value [18] was 102.39% and the “% Viability” value [19] was 70.18%. For the same substance, the “% Viability” value [20] was 152.77%, the “% Viability” value [21] was 70.87% and the “% Viability” value [22] was 102.76%. The “% Viability” value [23] was 79.67%, the “% Viability” value [24] was 131.49% and the “% Viability” value [25] was 92.74%. The “% Viability” value [26] was 89.05%, the “% Viability” value [27] was 78.24% and the “% Viability” value [28] was 84.58%. For the same substance, the “% Viability” value [29] was 79.02%.

In the case of “GPC2 siRNA 5: siRNA duplex: sense CUCAGUAGCCCAGCACUCU[dT][dT] (SEQ ID NO: 211), anti-sense AGAGUGCUGGGCUACUGAG[dT][dT] (SEQ ID NO: 212) (sense CUCAGUAGCCCAGCACUCUTT; antisense AGAGUGCUGGGCUACUGAGTT; sugars from the 5' end r19 d2, backbone not given here; listed as Homo sapiens)”, the “Data Summary: effect … to cisplatin” value [1] is reported as “increases sensitivity to”, the IC50 [1] is reported as 6 µM and the “Data Summary: effect … to cisplatin” value [2] is reported as “does not increase”. The IC50 [2] was 7 µM, the “Data Summary: effect … to cisplatin” value [3] was “does not increase” and the IC50 [3] was 17 µM. The “Data Summary: effect … to cisplatin” value ([4]; GIST-T1) was “increases sensitivity to”, the IC50 [4] was 1 µM and the “Data Summary: effect … to cisplatin” value ([5]; RH41) was “increases sensitivity to”. For the same substance, the IC50 [5] was 1 µM, the “Data Summary: effect … to cisplatin” value [6] was “does not increase” and the IC50 [6] was 16 µM. For the same substance, the “Data Summary: effect … to cisplatin” value ([7]; SH-SY5Y) was “increases sensitivity to”, the IC50 [7] was 9.3 µM and the “Data Summary: effect … to cisplatin” value [8] was “increases sensitivity to”. For the same substance, the IC50 [8] was 15 µM, the “Data Summary: effect … to cisplatin” value [9] was “increases sensitivity to” and the IC50 [9] was 6 µM. The “Data Summary: effect … to cisplatin” value [10] was “does not increase”, the IC50 [10] was 1.2 µM and the “Data Summary: effect … to cyclophosphamide” value [11] was “increases sensitivity to”. For the same substance, the IC50 [11] was 10 µM, the “Data Summary: effect … to cyclophosphamide” value [12] was “increases sensitivity to” and the IC50 [12] was 1 µM. For the same substance, the “Data Summary: effect … to cyclophosphamide” value [13] was “not increase sensitivity”, the IC50 [13] was 5 µM and the “Data Summary: effect … to cyclophosphamide” value [14] was “increases sensitivity to”. For the same substance, the IC50 [14] was 0.48 µM, the “Data Summary: effect … to etoposide” value [15] was “increases sensitivity to etoposide” and the IC50 [15] was 0.9 µM. For the same substance, the “Data Summary: effect … to etoposide” value [16] was “increases sensitivity to etoposide”, the IC50 [16] was 0.06 µM and the IC50 [17] was 0.08 µM. The “% Viability” value ([18]; TC71 (Ewing's Sarcoma), 96 hour incubation) was 100.92%, the “% Viability” value ([19]; CHP212 (Neuroblastoma), 96 hour incubation) was 64.46% and the “% Viability” value ([20]; TOV112D (Ovarian Carcinoma), 96 hour incubation) was 81.15%. For the same substance, the “% Viability” value ([21]; GIST-T1 (Gastrointestinal Stromal), 96 hour incubation) was 40.13%, the “% Viability” value [22] was 94.27% and the “% Viability” value ([23]; MCF7 (Breast), 96 hour incubation) was 67.11%. The “% Viability” value ([24]; RH41 (Rhabdomyosarcoma), 96 hour incubation) was 31.32%, the “% Viability” value ([25]; SNU16 (Gastric), 96 hour incubation) was 89.01% and the “% Viability” value ([26]; IMR32 (Neuroblastoma), 96 hour incubation) was 63.62%. The “% Viability” value ([27]; TC32 (Ewing's Sarcoma), 96 hour incubation) was 77.18%, the “% Viability” value ([28]; SKNAS (Neuroblastoma), 96 hour incubation) was 56.14% and the “% Viability” value ([29]; RH30 (Rhabdomyosarcoma), 96 hour incubation) was 46.03%.
